What all share (format): functional
The test system of assay [1] is Radical scavenging activity. The assay is described as follows: Antioxidant activity assessed as DPPH radical scavenging activity after 30 min by spectrophotometric analysis.
The subject of assay [2] is Trichophyton rubrum. The assay is described as follows: Antifungal activity against Trichophyton rubrum after 18 hr by serial dilution method.
The subject of assay [3] is Aspergillus niger. The assay is described as follows: Antifungal activity against Aspergillus niger after 18 hr by serial dilution method.
The test system of assay [4] is Monascus purpureus. The assay is described as follows: Antifungal activity against Monascus purpureus after 18 hr by serial dilution method.
Assay [5] has as its system Candida albicans. The assay is described as follows: Antifungal activity against Candida albicans after 18 hr by serial dilution method.
Assay [6] concerns Trichophyton rubrum. The assay is described as follows: Antifungal activity against Trichophyton rubrum after 24 hr by disk diffusion method.
In assay [7] the test system is Aspergillus niger. The assay is described as follows: Antifungal activity against Aspergillus niger after 24 hr by disc diffusion method.
The test system of assay [8] is Monascus purpureus. The assay is described as follows: Antifungal activity against Monascus purpureus after 24 hr by disk diffusion method.
Assay [9] concerns Staphylococcus epidermidis. The assay is described as follows: Antibacterial activity against Staphylococcus albus after 18 hr by serial dilution method.
Assay [10] concerns Bacillus subtilis. The assay is described as follows: Antibacterial activity against Bacillus subtilis after 18 hr by serial dilution method.
The subject of assay [11] is Staphylococcus aureus. The assay is described as follows: Antibacterial activity against Staphylococcus aureus after 18 hr by serial dilution method.
For assay [12], the system named is Micrococcus luteus. The assay is described as follows: Antibacterial activity against Micrococcus luteus after 18 hr by serial dilution method.
The subject of assay [13] is Vibrio cholerae. The assay is described as follows: Antibacterial activity against Vibrio cholerae after 18 hr by serial dilution method.
In assay [14] the test system is Salmonella paratyphi. The assay is described as follows: Antibacterial activity against Salmonella enterica subsp. enterica serovar Paratyphi A after 18 hr by serial dilution method.
In assay [15] the test system is Escherichia coli. The assay is described as follows: Antibacterial activity against Escherichia coli after 18 hr by serial dilution method.
Assay [16] deals with Pseudomonas aeruginosa. The assay is described as follows: Antibacterial activity against Pseudomonas aeruginosa after 18 hr by serial dilution method.
The test system of assay [17] is Candida albicans. The assay is described as follows: Antifungal activity against Candida albicans after 24 hr by disk diffusion method.
The subject of assay [18] is Staphylococcus epidermidis. The assay is described as follows: Antibacterial activity against Staphylococcus albus after 24 hr by disk diffusion method.
Assay [19] concerns Bacillus subtilis. The assay is described as follows: Antibacterial activity against Bacillus subtilis after 24 hr by disk diffusion method.
The subject of assay [20] is Staphylococcus aureus. The assay is described as follows: Antibacterial activity against Staphylococcus aureus after 24 hr by disk diffusion method.
For assay [21], the system named is Micrococcus luteus. The assay is described as follows: Antibacterial activity against Micrococcus luteus after 24 hr by disk diffusion method.
The subject of assay [22] is Pseudomonas aeruginosa. The assay is described as follows: Antibacterial activity against Pseudomonas aeruginosa after 24 hr by disc diffusion method.
For assay [23], the system named is Escherichia coli. The assay is described as follows: Antibacterial activity against Escherichia coli after 24 hr by disc diffusion method.
The subject of assay [24] is Salmonella paratyphi. The assay is described as follows: Antibacterial activity against Salmonella enterica subsp. enterica serovar Paratyphi A after 24 hr by disk diffusion method.
The test system of assay [25] is Vibrio cholerae. The assay is described as follows: Antibacterial activity against Vibrio cholerae after 24 hr by disk diffusion method.
The nature of assay [26]: Antioxidant activity assessed as reduction of ferric ion after 30 min by spectrophotometric analysis.

In brackets after ≈: the same amount, converted by molar mass. Activity calls are given as the source filed them. No cut-off for these calls is given here.

Here are results for six molecules from ChEMBL document CHEMBL3044552, “Synthesis and biological evaluation of 1-(3-chloro-2-oxo-4-phenylazetidin-1-yl)-3-(2-oxo-2-(10H-phenothiazin-10-yl)ethyl)urea derivatives” (Med Chem Res, 2013).

As for `O=C1O[C@H]([C@@H](O)CO)C(O)=C1O` [ASCORBIC ACID], in assay [1], the EC50 stood at 40 µg/mL (≈ 227 µM).
Turning to `Clc1ccccc1C(c1ccccc1)(c1ccccc1)n1ccnc1` [CLOTRIMAZOLE], the minimal inhibitory concentration (MIC) in the assay on Trichophyton rubrum [2] was 62.5 µg/mL (≈ 181 µM); against Aspergillus niger [3], 125 µg/mL (≈ 362 µM); with Monascus purpureus [4], 62.5 µg/mL (≈ 181 µM); against Candida albicans [5], 62.5 µg/mL (≈ 181 µM). The figures for the “diameter of the inhibition zone (DIZ)” value in the assay on Trichophyton rubrum [6], in the assay on Aspergillus niger [7] and in the assay with Monascus purpureus [8] were 22 mm, 4 mm and 20 mm, respectively.
On to `COc1cc(C2C(Cl)C(=O)N2NC(=O)NCC(=O)N2c3ccccc3Sc3ccccc32)ccc1O` (configuration not stated), for which the MIC with Trichophyton rubrum [2] came to 250 µg/mL (≈ 476 µM); against Aspergillus niger [3], 250 µg/mL (≈ 476 µM); in the assay with Monascus purpureus [4], 250 µg/mL (≈ 476 µM); in the assay with Candida albicans [5] it was 125 µg/mL (≈ 238 µM); in assay [9] it was 250 µg/mL (≈ 476 µM); against Bacillus subtilis [10], 250 µg/mL (≈ 476 µM). For the same molecule, the MIC against Staphylococcus aureus [11] was determined as 250 µg/mL (≈ 476 µM); against Micrococcus luteus [12] it was 250 µg/mL (≈ 476 µM); in the assay on Vibrio cholerae [13] it was 125 µg/mL (≈ 238 µM); in the assay on Salmonella paratyphi [14] it was 125 µg/mL (≈ 238 µM); against Escherichia coli [15] it was 125 µg/mL (≈ 238 µM); against Pseudomonas aeruginosa [16], 125 µg/mL (≈ 238 µM). Moreover, the “diameter of the inhibition zone (DIZ)” value with Trichophyton rubrum [6] came to 4 mm; in the assay on Aspergillus niger [7] it was 5 mm; with Monascus purpureus [8], 7 mm; in the assay on Candida albicans [17], 10 mm; in [18], 5 mm; in the assay with Bacillus subtilis [19] it was 6 mm. Further, the “diameter of the inhibition zone (DIZ)” value in the assay on Staphylococcus aureus [20] is recorded as 7 mm; in the assay with Micrococcus luteus [21] it was 8 mm; in the assay with Pseudomonas aeruginosa [22], 10 mm; with Escherichia coli [23], 10 mm; in the assay on Salmonella paratyphi [24] it was 10 mm; in the assay with Vibrio cholerae [25], 10 mm.
In the case of FERROUS SULFATE, the result in assay [26] was Active.
Regarding `COc1ccc(C2C(Cl)C(=O)N2NC(=O)NCC(=O)N2c3ccccc3Sc3ccccc32)cc1` (configuration not stated), the MIC against Trichophyton rubrum [2] turned out to be 250 µg/mL (≈ 491 µM); with Aspergillus niger [3], 125 µg/mL (≈ 246 µM); against Monascus purpureus [4] it was 250 µg/mL (≈ 491 µM); against Candida albicans [5] it was 250 µg/mL (≈ 491 µM); in assay [9] it was 62.5 µg/mL (≈ 123 µM); in the assay with Bacillus subtilis [10] it was 250 µg/mL (≈ 491 µM). Also, the MIC against Staphylococcus aureus [11] came out at 250 µg/mL (≈ 491 µM); in the assay on Micrococcus luteus [12], 250 µg/mL (≈ 491 µM); with Vibrio cholerae [13], 125 µg/mL (≈ 246 µM); against Salmonella paratyphi [14], 125 µg/mL (≈ 246 µM); against Escherichia coli [15], 125 µg/mL (≈ 246 µM); against Pseudomonas aeruginosa [16], 125 µg/mL (≈ 246 µM). The “diameter of the inhibition zone (DIZ)” value in the assay on Trichophyton rubrum [6] is recorded as 6 mm; in the assay with Aspergillus niger [7], 10 mm; in the assay on Monascus purpureus [8], 6 mm; in the assay with Candida albicans [17], 7 mm; in [18] it was 10 mm; with Bacillus subtilis [19], 7 mm. Besides, the “diameter of the inhibition zone (DIZ)” value was determined as 5 mm with Staphylococcus aureus [20]; 7 mm in the assay with Micrococcus luteus [21]; 7 mm in the assay with Pseudomonas aeruginosa [22]; 8 mm in the assay with Escherichia coli [23]; 8 mm with Salmonella paratyphi [24]; 9 mm in the assay on Vibrio cholerae [25].
In the case of `O=C(O)c1cn(C2CC2)c2cc(N3CCNCC3)c(F)cc2c1=O` [CIPROFLOXACIN], the MIC in assay [9] turned out to be 62.5 µg/mL (≈ 189 µM); against Bacillus subtilis [10], 62.5 µg/mL (≈ 189 µM); in the assay with Staphylococcus aureus [11] it was 62.5 µg/mL (≈ 189 µM); against Micrococcus luteus [12], 125 µg/mL (≈ 377 µM); with Vibrio cholerae [13], 125 µg/mL (≈ 377 µM); in the assay with Salmonella paratyphi [14] it was 125 µg/mL (≈ 377 µM). Also, the MIC against Escherichia coli [15] and with Pseudomonas aeruginosa [16] was 62.5 µg/mL (≈ 189 µM) throughout. The “diameter of the inhibition zone (DIZ)” value in [18] stood at 23 mm; with Bacillus subtilis [19] it was 25 mm; with Staphylococcus aureus [20], 20 mm; in the assay on Micrococcus luteus [21], 16 mm; in the assay with Pseudomonas aeruginosa [22], 22 mm; in the assay on Salmonella paratyphi [24] it was 18 mm. For the same molecule, the “diameter of the inhibition zone (DIZ)” value in the assay on Vibrio cholerae [25] is recorded as 15 mm.
